Data as given in ChEMBL document CHEMBL1201862, “PubChem BioAssay data set” (2004).
Calls of active or inactive are those of the source.

Columns and labels:
[1] = biological target: Sphingosine 1-phosphate receptor 4 (Homo sapiens, UniProt O95977); assay: Fluorescence dose response cell-based high throughput screening assay for antagonists of the Sphingosine 1-Phosphate Receptor 4 (S1P4). [Related pubchem assays: 1524 (Confirmation in triplicates.), 1510 (Primary screen.)]; type: functional
[2] = biological target: T1, Orexin/Hypocretin receptor type 1 (Homo sapiens, UniProt O43613); assay: Fluorescence-based cell-based high throughput dose response assay for antagonists of the orexin 1 receptor (OX1R; HCRTR1). [Related pubchem assays (depositor defined):AID434989, AID435008, AID463079, AID485270, AID492963, AID492964, AID492965, AID493232, AID504717, AID504718]; type: functional
T1 sequence (O43613 whole entry): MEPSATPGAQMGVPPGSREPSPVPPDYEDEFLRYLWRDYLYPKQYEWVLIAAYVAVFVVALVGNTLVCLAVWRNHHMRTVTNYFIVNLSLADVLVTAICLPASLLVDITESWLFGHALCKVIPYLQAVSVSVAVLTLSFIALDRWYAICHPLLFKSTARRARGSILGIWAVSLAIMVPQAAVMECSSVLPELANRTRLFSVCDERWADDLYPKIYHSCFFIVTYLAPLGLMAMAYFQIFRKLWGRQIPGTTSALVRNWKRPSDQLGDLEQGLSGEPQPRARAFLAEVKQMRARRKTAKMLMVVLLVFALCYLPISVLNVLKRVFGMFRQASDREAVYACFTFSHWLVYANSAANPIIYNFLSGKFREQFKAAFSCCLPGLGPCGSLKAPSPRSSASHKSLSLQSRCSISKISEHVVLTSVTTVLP

[3] = Fluorescence-based cell-based high throughput dose response assay for inhibitors of the interaction of nucleotide-binding oligomerization domain containing 2 (NOD2) and the receptor-interacting serine-threonine kinase 2 (RIPK2).; type: functional; settings: Homo sapiens
[4] = general mammalian cell viability loss – activator set, cherry-pick, cytotoxicity control for miR-122 modulator project, dose response (AID 720690); type: functional, cell-based;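 note: HEK293T human cells scored for general mammalian cytotoxicity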
[5] = biological target: SUMO-activating enzyme (Homo sapiens, UniProt Q9UBT2); assay: blockers of UBC9-mediated SUMO conjugation – biochemical, AlphaScreen, SUMOylation inhibitor project, confirmation (AID 2018); type: functional
SUMO-activating enzyme, sequence (Q9UBE0 whole entry): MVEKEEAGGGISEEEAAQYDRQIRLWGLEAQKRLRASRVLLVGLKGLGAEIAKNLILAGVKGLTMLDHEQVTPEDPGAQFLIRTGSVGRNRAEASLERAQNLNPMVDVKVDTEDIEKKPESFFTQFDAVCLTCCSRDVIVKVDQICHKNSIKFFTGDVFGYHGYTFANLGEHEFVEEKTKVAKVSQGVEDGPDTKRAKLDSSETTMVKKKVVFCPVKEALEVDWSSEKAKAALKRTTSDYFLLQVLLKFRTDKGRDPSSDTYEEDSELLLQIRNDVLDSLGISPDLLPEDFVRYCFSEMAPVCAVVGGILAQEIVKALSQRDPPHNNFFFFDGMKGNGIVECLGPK
SUMO-activating enzyme, sequence (Q9UBT2 whole entry): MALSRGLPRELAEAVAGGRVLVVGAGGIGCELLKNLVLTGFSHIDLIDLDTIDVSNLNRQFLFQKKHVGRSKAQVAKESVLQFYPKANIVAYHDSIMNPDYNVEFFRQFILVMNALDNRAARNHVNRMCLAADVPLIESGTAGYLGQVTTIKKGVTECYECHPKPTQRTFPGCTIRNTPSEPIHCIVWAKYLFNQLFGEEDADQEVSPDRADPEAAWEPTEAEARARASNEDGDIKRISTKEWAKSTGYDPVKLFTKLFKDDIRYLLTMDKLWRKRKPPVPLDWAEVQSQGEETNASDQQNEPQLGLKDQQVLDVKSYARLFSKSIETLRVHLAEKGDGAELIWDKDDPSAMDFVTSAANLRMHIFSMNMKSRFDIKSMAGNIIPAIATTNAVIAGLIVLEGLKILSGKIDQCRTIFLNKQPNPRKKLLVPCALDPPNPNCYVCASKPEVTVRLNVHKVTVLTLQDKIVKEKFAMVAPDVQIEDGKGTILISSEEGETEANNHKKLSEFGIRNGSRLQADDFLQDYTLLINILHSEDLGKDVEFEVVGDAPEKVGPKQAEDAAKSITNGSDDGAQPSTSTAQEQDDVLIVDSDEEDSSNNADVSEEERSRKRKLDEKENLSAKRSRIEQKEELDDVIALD

[6] = biological target: ORF 73 (Human herpesvirus 8, UniProt O40947); assay: KSHV LANA DNA-binding disruption – biochemical, fluorescence polarization, cherry-picked samples, dose response (AID 504725); set-up: species or system Human gammaherpesvirus 8;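 note: fluorescence polarization of a labeled DNA duplex reporting LANA DNA binding; potency is for inhibitors that block LANA binding to the DNA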
ORF 73, sequence (O40947 whole entry): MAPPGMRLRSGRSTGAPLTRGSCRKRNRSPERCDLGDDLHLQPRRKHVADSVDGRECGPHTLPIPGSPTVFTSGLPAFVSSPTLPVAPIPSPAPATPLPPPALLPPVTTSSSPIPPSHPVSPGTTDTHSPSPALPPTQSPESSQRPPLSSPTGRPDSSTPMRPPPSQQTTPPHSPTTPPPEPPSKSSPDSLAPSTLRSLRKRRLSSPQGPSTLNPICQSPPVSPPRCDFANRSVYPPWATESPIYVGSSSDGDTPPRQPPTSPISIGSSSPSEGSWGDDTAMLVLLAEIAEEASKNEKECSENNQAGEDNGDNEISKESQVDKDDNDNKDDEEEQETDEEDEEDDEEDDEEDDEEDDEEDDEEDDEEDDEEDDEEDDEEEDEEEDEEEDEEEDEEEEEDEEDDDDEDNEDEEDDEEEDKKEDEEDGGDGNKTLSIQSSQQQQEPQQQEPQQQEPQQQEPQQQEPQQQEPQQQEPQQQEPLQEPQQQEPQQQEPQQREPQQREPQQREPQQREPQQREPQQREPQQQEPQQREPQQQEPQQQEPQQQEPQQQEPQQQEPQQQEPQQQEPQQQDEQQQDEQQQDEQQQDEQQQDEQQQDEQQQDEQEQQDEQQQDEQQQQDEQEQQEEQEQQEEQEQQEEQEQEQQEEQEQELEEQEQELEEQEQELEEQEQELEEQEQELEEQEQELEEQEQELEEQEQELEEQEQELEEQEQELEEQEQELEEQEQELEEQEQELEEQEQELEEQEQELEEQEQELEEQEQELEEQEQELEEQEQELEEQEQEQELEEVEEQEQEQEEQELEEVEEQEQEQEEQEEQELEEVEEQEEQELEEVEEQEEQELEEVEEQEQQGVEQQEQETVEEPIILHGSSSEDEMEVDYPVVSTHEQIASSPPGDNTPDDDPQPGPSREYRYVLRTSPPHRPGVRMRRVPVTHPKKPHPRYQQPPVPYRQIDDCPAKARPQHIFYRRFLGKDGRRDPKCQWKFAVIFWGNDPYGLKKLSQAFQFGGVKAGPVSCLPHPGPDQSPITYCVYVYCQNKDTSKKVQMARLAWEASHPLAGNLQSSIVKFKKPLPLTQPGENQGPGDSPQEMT

[7] = biological target: Troponin, cardiac muscle (Homo sapiens, UniProt P19429+P45379+P63316); assay: compounds desensitizing RTF to calcium – biochemical, fluorescence, cardiac regulated thin filaments, triplicate IC50, dose response (AID 504742); type: protein-complex assay
[8] = biological target: T2, Alkaline phosphatase, tissue-nonspecific isozyme (Homo sapiens, UniProt P05186); assay: TNAP enzyme inhibition by screening hits, dose response, selectivity assay for mouse IAP inhibitor project, biochemical, human TNAP, uHTS hits (AID 488906); type: functional
T2 sequence (P05186 whole entry): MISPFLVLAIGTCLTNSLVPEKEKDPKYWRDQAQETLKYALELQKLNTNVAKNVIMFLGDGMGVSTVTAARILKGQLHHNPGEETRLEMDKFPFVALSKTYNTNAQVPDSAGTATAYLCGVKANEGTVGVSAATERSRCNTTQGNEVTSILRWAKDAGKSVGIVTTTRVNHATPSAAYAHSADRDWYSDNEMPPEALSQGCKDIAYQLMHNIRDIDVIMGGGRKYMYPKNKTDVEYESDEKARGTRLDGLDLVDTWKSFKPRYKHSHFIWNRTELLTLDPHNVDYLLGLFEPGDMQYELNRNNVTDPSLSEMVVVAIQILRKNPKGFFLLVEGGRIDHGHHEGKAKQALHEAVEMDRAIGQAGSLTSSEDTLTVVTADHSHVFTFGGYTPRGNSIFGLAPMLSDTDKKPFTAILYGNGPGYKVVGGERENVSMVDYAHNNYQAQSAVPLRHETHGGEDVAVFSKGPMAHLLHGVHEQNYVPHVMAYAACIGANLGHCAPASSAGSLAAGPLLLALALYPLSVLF

[9] = biological target: Apoptotic protease-activating factor 1 (Homo sapiens, UniProt O14727); type: functional
Apoptotic protease-activating factor 1, sequence (O14727 whole entry): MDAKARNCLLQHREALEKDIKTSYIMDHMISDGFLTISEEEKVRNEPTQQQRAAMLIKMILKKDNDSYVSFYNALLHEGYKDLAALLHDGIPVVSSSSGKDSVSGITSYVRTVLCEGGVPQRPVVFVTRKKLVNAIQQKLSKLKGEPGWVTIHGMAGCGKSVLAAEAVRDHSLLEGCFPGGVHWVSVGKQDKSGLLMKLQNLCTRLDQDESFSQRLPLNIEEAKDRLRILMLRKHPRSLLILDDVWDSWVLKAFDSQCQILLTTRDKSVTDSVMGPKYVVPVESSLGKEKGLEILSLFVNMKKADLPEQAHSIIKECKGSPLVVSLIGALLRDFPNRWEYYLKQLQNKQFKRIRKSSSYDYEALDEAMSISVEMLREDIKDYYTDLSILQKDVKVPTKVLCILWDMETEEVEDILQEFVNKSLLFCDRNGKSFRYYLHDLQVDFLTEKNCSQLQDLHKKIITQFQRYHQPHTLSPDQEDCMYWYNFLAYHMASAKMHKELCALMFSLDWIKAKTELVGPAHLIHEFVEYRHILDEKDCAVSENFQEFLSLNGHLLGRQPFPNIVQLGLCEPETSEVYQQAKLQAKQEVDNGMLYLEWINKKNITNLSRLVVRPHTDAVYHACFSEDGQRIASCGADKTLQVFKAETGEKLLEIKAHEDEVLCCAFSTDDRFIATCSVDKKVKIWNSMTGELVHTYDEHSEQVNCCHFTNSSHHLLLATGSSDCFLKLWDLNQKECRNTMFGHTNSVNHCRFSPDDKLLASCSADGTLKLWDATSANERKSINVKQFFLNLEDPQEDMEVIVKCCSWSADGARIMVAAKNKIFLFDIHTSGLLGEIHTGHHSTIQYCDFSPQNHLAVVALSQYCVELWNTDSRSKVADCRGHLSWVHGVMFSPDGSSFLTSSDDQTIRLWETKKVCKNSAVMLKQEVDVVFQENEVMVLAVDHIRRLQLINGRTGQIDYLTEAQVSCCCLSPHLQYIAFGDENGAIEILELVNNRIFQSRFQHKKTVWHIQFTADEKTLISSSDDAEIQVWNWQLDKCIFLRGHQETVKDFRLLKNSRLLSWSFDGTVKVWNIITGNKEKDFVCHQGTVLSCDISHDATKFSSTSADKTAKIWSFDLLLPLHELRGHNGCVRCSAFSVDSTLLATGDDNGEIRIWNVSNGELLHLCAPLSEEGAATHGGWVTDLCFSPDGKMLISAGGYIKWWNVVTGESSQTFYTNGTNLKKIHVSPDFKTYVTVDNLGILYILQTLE

[10] = biological target: Protein kinase C theta type (Homo sapiens, UniProt Q04759); assay: Navigating the Kinome. Panel member name: PRKCQ; type: functional
[11] = biological target: Mitogen-activated protein kinase 14 (Homo sapiens, UniProt Q16539); type: functional;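 note: part of a kinome-wide panel, MAPK14 entry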
[12] = biological target: Glycogen synthase kinase-3 alpha (Homo sapiens, UniProt P49840); type: functional;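 note: GSK3A result taken from a broad kinome-wide kinase panel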
Glycogen synthase kinase-3 alpha, sequence (P49840 whole entry): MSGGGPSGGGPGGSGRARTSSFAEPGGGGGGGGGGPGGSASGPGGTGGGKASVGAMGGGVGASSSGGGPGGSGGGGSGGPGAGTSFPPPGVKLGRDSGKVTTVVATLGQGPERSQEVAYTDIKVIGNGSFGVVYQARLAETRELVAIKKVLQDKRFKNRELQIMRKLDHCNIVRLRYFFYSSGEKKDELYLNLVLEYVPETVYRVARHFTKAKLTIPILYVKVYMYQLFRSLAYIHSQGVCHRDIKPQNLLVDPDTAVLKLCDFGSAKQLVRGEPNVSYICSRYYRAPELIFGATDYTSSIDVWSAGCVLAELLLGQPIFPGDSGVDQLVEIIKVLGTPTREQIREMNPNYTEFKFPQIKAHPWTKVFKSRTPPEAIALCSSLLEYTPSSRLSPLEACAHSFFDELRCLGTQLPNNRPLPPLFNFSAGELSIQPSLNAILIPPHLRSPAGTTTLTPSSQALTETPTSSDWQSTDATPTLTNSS

[13] = biological target: Cyclin-dependent kinase 19 (Homo sapiens, UniProt Q9BWU1); assay: Navigating the Kinome. Panel member name: CDC2L6; type: functional
[14] = cells; type: functional, cell-based
[15] = Trypanosoma cruzi growth suppression in host cells – NIH3T3 host cells, beta-gal luminescence, confirmation (AID 2044); type: functional, cell-based;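 note: intracellular parasites grown in NIH/3T3 mouse fibroblasts as host cells; luminescent beta-galactosidase reporter signal from transgenic T. cruzi replicating inside host cells; inhibitors lower the luminescence signal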
[16] = biological target: T3, Serine/threonine-protein phosphatase (Candida dubliniensis (strain CD36 / CBS 7987 / NCPF 3949 / NRRLY-17841) (Yeast), UniProt B9W6M3); assay: blockers of CaCl2-induced CDRE-lacZ signaling – S. cerevisiae, luminescence, secondary, dose response (AID 2388); type: functional, cell-based;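 note: yeast reporter cells carrying a calcineurin-responsive lacZ construct stimulated with calcium chloride; luminescent beta-galactosidase reporter signal in whole cells rather than isolated phosphatase activity; potency for inhibition where a drop in reporter signal means calcineurin blockade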
T3 sequence (B9W6M3 whole entry): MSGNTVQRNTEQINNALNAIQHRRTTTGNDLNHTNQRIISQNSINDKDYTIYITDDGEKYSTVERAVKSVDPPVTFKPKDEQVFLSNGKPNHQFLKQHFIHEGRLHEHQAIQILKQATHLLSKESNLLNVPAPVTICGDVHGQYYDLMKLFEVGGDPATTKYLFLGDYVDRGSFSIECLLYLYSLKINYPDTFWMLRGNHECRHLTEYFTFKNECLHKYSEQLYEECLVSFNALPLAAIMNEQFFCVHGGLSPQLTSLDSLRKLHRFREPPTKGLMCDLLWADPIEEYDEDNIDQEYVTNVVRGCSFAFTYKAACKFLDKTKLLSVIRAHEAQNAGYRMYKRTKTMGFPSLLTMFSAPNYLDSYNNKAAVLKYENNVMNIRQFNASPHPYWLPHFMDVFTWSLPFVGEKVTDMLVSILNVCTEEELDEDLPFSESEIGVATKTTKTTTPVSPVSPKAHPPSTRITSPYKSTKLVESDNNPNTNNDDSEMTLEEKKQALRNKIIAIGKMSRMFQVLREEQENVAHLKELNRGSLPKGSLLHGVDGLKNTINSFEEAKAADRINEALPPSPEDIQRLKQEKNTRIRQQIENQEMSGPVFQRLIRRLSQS

[17] = biological target: ATP-dependent molecular chaperone HSP82 (Candida albicans (strain WO-1) (Yeast), UniProt C4YTQ8); assay: steroid-induced GRE reporter decrease in yeast – S. cerevisiae, luminescence, Hsp90 inhibitor project, dose response (AID 2400); type: functional, cell-based;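 note: beta-galactosidase luminescence from glucocorticoid response element reporter as proxy for Hsp90 function; inhibitor potency where signal loss means Hsp90 inhibition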
ATP-dependent molecular chaperone HSP82, sequence (C4YTQ8 whole entry, the tested form may be a part): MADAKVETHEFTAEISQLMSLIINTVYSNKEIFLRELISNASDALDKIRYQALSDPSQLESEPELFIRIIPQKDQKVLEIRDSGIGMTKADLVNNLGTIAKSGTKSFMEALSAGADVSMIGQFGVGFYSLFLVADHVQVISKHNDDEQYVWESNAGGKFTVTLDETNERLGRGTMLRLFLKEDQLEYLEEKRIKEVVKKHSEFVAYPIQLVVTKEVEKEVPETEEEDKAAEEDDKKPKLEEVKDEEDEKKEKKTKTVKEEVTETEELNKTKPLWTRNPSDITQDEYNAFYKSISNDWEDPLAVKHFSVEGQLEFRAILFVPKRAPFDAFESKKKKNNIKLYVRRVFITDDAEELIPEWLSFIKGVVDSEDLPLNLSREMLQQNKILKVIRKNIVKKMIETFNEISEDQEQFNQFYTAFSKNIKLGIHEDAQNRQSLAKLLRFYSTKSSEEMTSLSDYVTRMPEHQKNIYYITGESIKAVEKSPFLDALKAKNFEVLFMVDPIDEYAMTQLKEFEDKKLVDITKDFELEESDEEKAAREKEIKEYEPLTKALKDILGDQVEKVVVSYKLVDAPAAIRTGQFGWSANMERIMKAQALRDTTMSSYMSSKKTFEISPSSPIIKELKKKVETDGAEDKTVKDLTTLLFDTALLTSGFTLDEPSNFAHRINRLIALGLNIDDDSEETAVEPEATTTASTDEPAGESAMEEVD

[18] = off-target signal loss in HeLa-CEM21 co-culture – HeLa F-luc CTL cells, cherry-picked, counter-screen for HIV-1 Env fusion inhibitor project, dose response (AID 652040); type: functional, cell-based;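 note: potency for signal decrease marking cytotoxic or nonspecific inhibition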

Sphingosine 1-phosphate receptor 4, sequence (O95977 whole entry): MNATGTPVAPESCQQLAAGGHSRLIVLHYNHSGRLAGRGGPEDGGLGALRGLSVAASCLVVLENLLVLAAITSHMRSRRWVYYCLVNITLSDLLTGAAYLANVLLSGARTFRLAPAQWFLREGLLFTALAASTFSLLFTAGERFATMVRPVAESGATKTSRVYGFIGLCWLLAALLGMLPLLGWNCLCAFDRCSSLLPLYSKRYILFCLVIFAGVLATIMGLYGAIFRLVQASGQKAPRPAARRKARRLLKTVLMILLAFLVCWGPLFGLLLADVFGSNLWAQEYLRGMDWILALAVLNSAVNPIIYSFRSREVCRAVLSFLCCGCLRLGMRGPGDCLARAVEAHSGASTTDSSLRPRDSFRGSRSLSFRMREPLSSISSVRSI

For `Cc1ccc(C(=O)OCn2ncc(Cl)c(Cl)c2=O)cc1`, the IC50 [1] was 1.27 µM (active), the IC50 [2] was 6.12 µM (active) and the IC50 [3] was 0.889 µM (active). The AC50 [4] was 4.47 µM (active).
With `O=C(O)CC(C(=O)O)N1C(=O)/C(=C/C=C/c2ccco2)SC1=S` (stereo not drawn) the IC50 [5] was 1.12 µM (active), the AC50 [6] was 28.9 µM (active) and the IC50 [7] was > 71.5 µM (inactive). For the same compound, the IC50 [8] was 91.8 µM (active) and the IC50 [9] was 36.6 µM (active).
With `O=C(Nc1cccc(C2Nc3ccc4ccccc4c3C3C=CCC32)c1)c1ccc(F)cc1` (stereo not drawn) the Ki [10] was 1 µM (active) and the Ki [11] was > 3.98 µM (inactive).
For `Cc1ccc(-c2cc(-c3cc(Br)ccc3O)[nH]c(=O)c2C#N)s1`, the Ki [12] was 1.58 µM (active) and the Ki [13] was > 100 µM (inactive).
For `CCCC(=O)NC(c1cccs1)c1cc(Cl)c2cccnc2c1O` (stereo not drawn), the EC50 [14] was 24.4 µM (active), the EC50 [15] was 1.06 µM (active) and the EC50 [16] was > 180 µM (inactive). The EC50 [17] was > 150 µM (inactive) and the AC50 [18] was 6.09 µM (active).
